Assay results: patent US7829560B2, “1,4-disubstituted naphthalenes as inhibitors of P38 MAP kinase” (Arqule, Inc., priority 2004, dated 2010)

Experiments:
p38α = molecular target: T1, p38α (Homo sapiens, UniProt Q16539); test: p38 MAP Kinase assay: inhibition of ATF2 phosphorylation, ELISA; assay type: biochemical; details: for IC50: ATF2 phosphorylation, read-out: [ENZ] P38 ALPHA, IC50, ELISA
T1 construct: p38 MAP Kinases are recombinant human full-length proteins with an amino-terminal GST fusion; GST (N); purchased Upstate Biotechnology Inc; host or cells: E. coli
How it was run: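 GST-tagged full-length human p38 MAP kinase with GST-ATF2 (aa 19–96; 1.25 μM) and 40 μM ATP in HEPES pH 7.5 buffer, without (Method I) or with (Method II) 1% human serum albumin. Compound pre-incubated 15 min at room temperature; reaction 30 min at 37 °C; ATF2 Thr69 phosphorylation measured by ELISA (A450).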

[1] = tested on: TNFα release from THP-1 cells; test: Inhibition of TNFα release from LPS-stimulated THP-1 cells, ELISA; assay type: cell-based; details: Homo sapiens, THP-1, THP-1 cells, read-out: [CELL] THP-1, IC50, TNF ALPHA, ELISA
How it was run: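 Human THP-1 monocytes, 10^6 cells/ml in RPMI with 10% FBS, no serum or 1% HSA, preincubated 30 min at 37 °C with compound (≤0.5% DMSO), then stimulated with 10 μg/ml LPS for 18 h. Supernatant TNFα measured by ELISA; IC50 from non-linear dose-response regression.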

T1 sequence (Q16539 whole entry, the tested form may be a part): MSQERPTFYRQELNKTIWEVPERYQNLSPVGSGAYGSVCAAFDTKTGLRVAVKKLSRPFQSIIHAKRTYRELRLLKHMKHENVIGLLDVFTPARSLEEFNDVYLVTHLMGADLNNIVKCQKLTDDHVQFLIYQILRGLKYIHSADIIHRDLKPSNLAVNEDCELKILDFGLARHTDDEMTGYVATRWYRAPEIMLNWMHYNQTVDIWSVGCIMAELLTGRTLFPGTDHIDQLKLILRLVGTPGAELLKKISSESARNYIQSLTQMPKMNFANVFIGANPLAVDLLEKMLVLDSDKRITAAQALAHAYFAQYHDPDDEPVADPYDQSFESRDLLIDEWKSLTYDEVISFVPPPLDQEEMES

SMILES	IC50 (p38α) [nM]	IC50 [1] [nM]	melting point [°C]	inhibition at 10 µM (p38α; 10 uM, substrate ATF2, read-out: [ENZ] P38 ALPHA, PCT INH, ELISA (10 uM;ATF2) (Percent)) [%]
N#Cc1ccc(C(=O)Nc2ccc(OCCN3CCOCC3)c3ccccc23)cc1 [Compound B36, 4-Cyano-N-[4-(2-morpholin-4-ylethoxy)-1-naphthyl]benzamide]	5090	6620	213 to 214	–
CSc1nccc(Oc2ccc(NC(=O)c3cccc(OC(C)(C)C)c3)c3ccccc23)n1 [Compound B306, 3-tert-Butoxy-N-[4-(2-methylsulfanyl-pyrimidin-4-yloxy)-naphthalen-1-yl]-benzamide]	74.5	152	135 to 136	–
O=C(Nc1ccc(OCc2ccncc2)c2ccccc12)c1cc(F)cc(OC2CCOCC2)c1 [Compound B229, 3-Fluoro-N-[4-(pyridin-4-ylmethoxy)-1-naphthyl]-5-(tetrahydro-2H-pyran-4-yloxy)benzamide]	821	5660	182 to 184	–
CC1CCN(c2nccc(Oc3ccc(NC(=O)c4cc(F)cc(N5CCOCC5)c4)c4ccccc34)n2)CC1 [Compound B335, 3-Fluoro-N-(4-{[2-(4-methylpiperidin-1-yl)pyrimidin-4-yl]oxy}-1-naphthyl)-5-morpholin-4-ylbenzamide]	22.2	> 1000	117 to 118	–
O=C(Nc1ccc(Oc2ccnc(NC3(CO)CCCC3)n2)c2ccccc12)c1cc(F)cc(N2CCOCC2)c1 [Compound B350, 3-Fluoro-N-{4-[(2-{[1-(hydroxymethyl)cyclopentyl]amino}pyrimidin-4-yl)oxy]-1-naphthyl}-5-morpholin-4-ylbenzamide]	9.5	68.1	115 to 117	–
CC(=O)N1CCN(c2nccc(Oc3ccc(NC(=O)c4cc(F)cc(N5CCCCC5)c4)c4ccccc34)n2)CC1 [Compound B400, N-(4-{[2-(4-Acetylpiperazin-1-yl)pyrimidin-4-yl]oxy}-1-naphthyl)-3-fluoro-5-piperidin-1-ylbenzamide]	7.4	565	102 to 104	–
COC(CN(C)c1nccc(Oc2ccc(NC(=O)c3cc(F)cc(N4CCCCC4)c3)c3ccccc23)n1)OC [Compound B403, N-[4-({2-[(2,2-Dimethoxyethyl)(methyl)amino]pyrimidin-4-yl}oxy)-1-naphthyl]-3-fluoro-5-piperidin-1-ylbenzamide]	48.3	254	135 to 136	–
CC(C)(C)OC(=O)NC1CCN(c2nccc(Oc3ccc(NC(=O)c4cc(F)cc(N5CCCCC5)c4)c4ccccc34)n2)CC1 [Compound B410, tert-Butyl{1-[4-({4-[(3-fluoro-5-piperidin-1-ylbenzoyl)amino]-1-naphthyl}oxy)pyrimidin-2-yl]piperidin-4-yl}carbamate]	90.9	> 1000	211 to 212	–
CN(C)[C@@H]1CCN(c2nccc(Oc3ccc(NC(=O)c4cc(F)cc(N5CCCCC5)c4)c4ccccc34)n2)C1 [Compound B405, N-[4-({2-[(3R)-3-(Dimethylamino)pyrrolidin-1-yl]pyrimidin-4-yl}oxy)-1-naphthyl]-3-fluoro-5-piperidin-1-ylbenzamide]	30.4	202	93 to 94	–
O=C(Nc1ccc(Oc2ccnc(N3CCC(O)CC3)n2)c2ccccc12)c1cc(F)cc(N2CCOCC2)c1 [Compound B332, 3-Fluoro-N-(4-{[2-(4-hydroxypiperidin-1-yl)pyrimidin-4-yl]oxy}-1-naphthyl)-5-morpholin-4-ylbenzamide]	5	252	106 to 108	–
COCC(C)Nc1nccc(Oc2ccc(NC(=O)c3cc(F)cc(N4CCCCC4)c3)c3ccccc23)n1 (stereo not shown) [Compound B392, 3-Fluoro-N-[4-({2-[(2-methoxy-1-methylethyl)amino]pyrimidin-4-yl}oxy)-1-naphthyl]-5-piperidin-1-ylbenzamide]	7.1	122	94 to 95	–
O=C1CN(CCCOc2ccc(NC(=O)c3cc(F)cc(N4CCCCC4)c3)c3ccccc23)CCN1 [Compound B175, 3-Fluoro-N-{4-[3-(3-oxo-piperazin-1-yl)-propoxy]-naphthalen-1-yl}-5-piperidin-1-yl-benzamide]	1110	> 10000	90 to 92	–
O=C(Nc1ccc(Oc2ccnc(NCCN3CCOCC3)n2)c2ccccc12)c1cc(F)cc(N2CCOCC2)c1 [Compound B326, 3-Fluoro-5-morpholin-4-yl-N-[4-({2-[(2-morpholin-4-ylethyl)amino]pyrimidin-4-yl}oxy)-1-naphthyl]benzamide]	3.1	76.8	112 to 114	–
CC(C)CN(C)c1cc(F)cc(C(=O)Nc2ccc(OCCN3CCOCC3)c3ccccc23)c1 [Compound B210, 3-Fluoro-5-[isobutyl(methyl)amino]-N-[4-(2-morpholin-4-ylethoxy)-1-naphthyl]benzamide]	1300	> 10000	126 to 128	–
CSc1nccc(Oc2ccc(NC(=O)c3cc(F)cc(OC4CCCCC4)c3)c3ccccc23)n1 [Compound B303, 3-(Cyclohexyloxy)-5-fluoro-N-(4-{[2-(methylthio)pyrimidin-4-yl]oxy}-1-naphthyl)benzamide]	275	232	130 to 132	–
CN1CCCC1CCNc1nccc(Oc2ccc(NC(=O)c3cc(F)cc(N4CCOCC4)c3)c3ccccc23)n1 (stereo not shown) [Compound B344, 3-Fluoro-N-{4-[(2-{[2-(1-methylpyrrolidin-2-yl)ethyl]amino}pyrimidin-4-yl)oxy]-1-naphthyl}-5-morpholin-4-ylbenzamide]	1.1	6.1	100 to 101	–
O=C(Nc1ccc(Oc2ccnc(NC3CCCCC3)n2)c2ccccc12)c1cc(F)cc(N2CCOCC2)c1 [Compound B323, N-(4-{[2-(Cyclohexylamino)pyrimidin-4-yl]oxy}-1-naphthyl)-3-fluoro-5-morpholin-4-ylbenzamide]	11.9	36.1	135 to 136	–
COc1cccc(C(=O)Nc2ccc(OCCN3CCOCC3)c3ccccc23)c1 [Compound B60, 3-Methoxy-N-[4-(2-morpholin-4-ylethoxy)-1-naphthyl]benzamide]	7810	> 10000	105 to 107	–
CC1CCC(Nc2nccc(Oc3ccc(NC(=O)c4cc(F)cc(N5CCOCC5)c4)c4ccccc34)n2)CC1 (stereo not shown) [Compound B337, 3-Fluoro-N-[4-({2-[(4-methylcyclohexyl)amino]pyrimidin-4-yl}oxy)-1-naphthyl]-5-morpholin-4-ylbenzamide]	33.3	65.6	116 to 117	–
CC1CCN(c2cc(F)cc(C(=O)Nc3ccc(OCCN4CCOCC4)c4ccccc34)c2)CC1 [Compound B184, 3-Fluoro-5-(4-methylpiperidin-1-yl)-N-[4-(2-morpholin-4-ylethoxy)-1-naphthyl]benzamide]	1070	6990	116 to 118	–
O=C(Nc1ccc(Oc2ccnc(NCc3ccccc3)n2)c2ccccc12)c1cc(F)cc(N2CCOCC2)c1 [Compound B249, N-(4-{[2-(Benzylamino)pyrimidin-4-yl]oxy}-1-naphthyl)-3-fluoro-5-morpholin-4-ylbenzamide]	13.9	12.4	121 to 123	–
CN(C)C1CCN(c2nccc(Oc3ccc(NC(=O)c4cc(F)cc(N5CCOCC5)c4)c4ccccc34)n2)C1 (stereo not shown) [Compound B365, N-[4-({2-[3-(Dimethylamino)pyrrolidin-1-yl]pyrimidin-4-yl}oxy)-1-naphthyl]-3-fluoro-5-morpholin-4-ylbenzamide]	28	56.7	106 to 108	–
O=C(Nc1ccc(OCCN2CCOCC2)c2ccccc12)c1cccc(-n2cccc2)c1 [Compound B57, N-[4-(2-Morpholin-4-yl-ethoxy)-naphthalen-1-yl]-3-pyrrol-1-yl-benzamide]	1190	2650	142 to 143	–
CCC1CCC(Oc2cc(F)cc(C(=O)Nc3ccc(OCCN4CCOCC4)c4ccccc34)c2)CC1 (stereo not shown) [Compound B194, 3-[(4-Ethylcyclohexyl)oxy]-5-fluoro-N-[4-(2-morpholin-4-ylethoxy)-1-naphthyl]benzamide]	9280	> 10000	102 to 105	–
O=C(Nc1ccc(Oc2ccnc(NCCN3CCCCC3)n2)c2ccccc12)c1cc(F)cc(N2CCOCC2)c1 [Compound B343, 3-Fluoro-5-morpholin-4-yl-N-[4-({2-[(2-piperidin-1-ylethyl)amino]pyrimidin-4-yl}oxy)-1-naphthyl]benzamide]	15.2	136	98 to 100	–
O=C(Nc1ccc(OCCN2CCOCC2)c2ccccc12)c1cc(F)cc(N2CCCCCC2)c1 [Compound B67, 3-Azepan-1-yl-5-fluoro-N-[4-(2-morpholin-4-ylethoxy)-1-naphthyl]benzamide]	620	9080	142 to 144	85
